# Assay results taken from patent US10031128B2, “Screening method, screening kit and analysis program” (National Institutes for Quantum and Radiological Science …, priority 2012, dated 2018).
# Where two headings read alike, the source gives them in different places.
# System: rat thymocytes
# Assay type: cell-based
# Settings: 4 h, pH 6.8
# Method: As Example 1, an example using thymocytes as lymphoid cells will be described. In this example, rat thymocytes are used. A rat is suited for studies of screening and the like because a rat has the thymus larger than that of a mouse, and a large quantity of thymocytes corresponding to 2000 to 20000 samples is obtained from one rat.
# (1) First, extract the thymus surgically from a rat.
# (2) The extracted thymus is washed lightly in PBS. This washing may be performed for 1 minute to 5 minutes, and actually for 2 minutes to 3 minutes merely for washing out excess blood or tissues.
# (3) The washed thymus is put into a RPMI 1640 medium supplemented with approximately 10% FBS (fetal bovine serum) (having subjected to an inactivation treatment). As the inactivation treatment, a heat treatment at 56° C. is performed for 30 minutes. In the example, the RPMI 1640 medium is 500 ml (ml is a unit symbol for milliliter, the same shall apply hereinafter), and FBS is 55 ml. Thereafter, the thymocytes are kept in the RPMI 1640 medium supplemented with serum to improve the separating ability of the presence or absence of condensation, and improve the measurement accuracy.
# (4) Thymocytes are squeezed out of the thymus with tweezers, and passed through mesh to remove unnecessary contaminants and to disassemble the thymocytes. The culture temperature during this treatment is 4° C., and pH is 6.8. The amount of the medium used during cell purification is approximately 20 ml.
# (5) The number of cells is counted, and a required number of the cells are seeded on a plate. In the experiment of this example, 5×10^5 cells/well are seeded using a 48-well plate. Also, since measurement is performed for about 20 samples in the experiment of this example, approximately 10 ml of a medium is used. As the medium, a medium of the volume conforming to the container is required. For example, when a 48-well plate is used, approximately 500 μl/well (microliter per well) is required in seeding cells on the plate. When a 96-well plate is used, approximately 50 to 200 μl/well is required in seeding cells on the plate. When one 96-well plate is used, up to approximately 20 ml of a medium is required.
# In this example, (I) irradiation with 2 Gy X-ray, (II) administration with a 1 mM (mM is a unit symbol for millimolar, the same shall apply hereinafter) catechin derivative, (III) preliminary administration with a 1 mM catechin derivative and irradiation with 2 Gy X-ray, (IV) administration with 100 μM epigallocatechin (μM is a unit symbol for micromolar, the same shall apply hereinafter), (V) administration with 10 μM vitamin C, or (VI) administration with 100 μM vitamin C was performed. The temperature of the medium in performing this treatment can be 4° C. to room temperature, and is preferably approximately 4° C. so as not to promote the reaction. Gray (Gy) is a unit for absorbed dose of radiation. The absorbed dose when 1 joule of radiation energy is absorbed in 1 kilogram of a substance by radiation is defined as 1 gray.
# The samples of (I) to (VI) in Step 2 were incubated for 4 hours. During the incubation, the medium is at a temperature of 37° C., at a CO2 concentration of 5%, under humidification, and at pH 6.8.
# After the incubation in Step 3, measurement was performed by using FACSCALIBUR™ (a flow cytometry system). The time required for the measurement is about one hour. […]
# FIG. 2(A) to FIG. 2(D), and FIG. 3(A) to FIG. 3(D) are cell size measurement graphs showing measured cell sizes. […]
peak of cell size (cell size measurement graph) (10 μM),Compound,peak of cell size (cell size measurement graph) (100 μM),another peak at apoptotic cell peak position (cell size) (10 μM),another peak at apoptotic cell peak position (cell size) (100 μM)
–,Oc1cc(O)c2c(c1)O[C@H](c1cc(O)c(O)c(O)c1)[C@H](O)C2 [epigallocatechin],around 300,–,–
around 400,O=C1O[C@H]([C@@H](O)CO)C(O)=C1O [vitamin C],around 400,around 250,around 250
